IC50 and inhibition data for one molecule are collected here from patent US20220306640A1, “HYDANTOIN DERIVATIVE” (ONO PHARMACEUTICAL CO., LTD., priority 2019, published 2022).

The target of one assay is T1, DDR1 (Homo sapiens, UniProt Q08345).
T1 construct: purchased Invitrogen
The experiment in a line: Measurement of DDR1 inhibitory activity (LanthaScreen system, in vitro test). Type of assay: binding. Particulars: GST-DDR1, Kinase tracer 178. The essentials:
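TR-FRET tracer-displacement binding assay with GST-DDR1, Kinase tracer 178 and Eu-anti-GST antibody in HEPES pH 7.5, MgCl2, EGTA, Brij-35 buffer, 1% DMSO. Compound preincubated with enzyme 15 min at RT, then tracer/antibody 1 h at RT; 665/615 nm read. Percent inhibition versus no-enzyme and DMSO controls; IC50 from inhibition curves.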
On the technique in general: Time-resolved FRET reads energy transfer from a long-lived donor to a nearby acceptor.

For another assay, the target named is T2, Flt-3 (Homo sapiens, UniProt P36888).
T2 sequence (P36888 27-993): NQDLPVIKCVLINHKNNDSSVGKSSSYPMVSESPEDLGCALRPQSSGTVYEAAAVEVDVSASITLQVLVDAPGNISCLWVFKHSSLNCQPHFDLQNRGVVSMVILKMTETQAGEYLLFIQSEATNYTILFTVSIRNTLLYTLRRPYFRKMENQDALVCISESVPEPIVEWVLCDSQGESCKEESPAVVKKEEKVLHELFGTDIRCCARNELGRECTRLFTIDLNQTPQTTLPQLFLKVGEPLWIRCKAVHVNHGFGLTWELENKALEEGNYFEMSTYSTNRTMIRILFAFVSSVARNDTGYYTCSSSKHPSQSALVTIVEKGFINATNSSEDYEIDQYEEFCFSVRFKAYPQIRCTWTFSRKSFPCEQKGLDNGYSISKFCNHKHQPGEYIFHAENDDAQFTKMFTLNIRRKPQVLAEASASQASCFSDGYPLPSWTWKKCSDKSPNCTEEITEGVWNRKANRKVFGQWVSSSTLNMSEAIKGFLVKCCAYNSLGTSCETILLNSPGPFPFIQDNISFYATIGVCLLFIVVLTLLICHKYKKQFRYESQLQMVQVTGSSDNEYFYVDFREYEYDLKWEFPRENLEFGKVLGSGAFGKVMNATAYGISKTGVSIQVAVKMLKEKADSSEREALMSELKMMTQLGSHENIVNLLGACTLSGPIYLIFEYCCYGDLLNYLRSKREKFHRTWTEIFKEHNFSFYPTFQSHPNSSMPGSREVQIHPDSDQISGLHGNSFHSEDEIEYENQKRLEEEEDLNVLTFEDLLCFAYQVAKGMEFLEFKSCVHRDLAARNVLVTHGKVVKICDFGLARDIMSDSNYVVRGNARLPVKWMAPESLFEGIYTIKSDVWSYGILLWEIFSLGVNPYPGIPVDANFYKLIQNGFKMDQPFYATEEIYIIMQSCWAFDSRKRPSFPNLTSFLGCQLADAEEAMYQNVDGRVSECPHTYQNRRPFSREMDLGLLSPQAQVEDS
Description: Evaluation of kinase selectivity: % inhibition rate of Flt-3 at 1 μmol/L. Type of assay: biochemical. The settings on record: compound at 1 μmol/L. Here is the method:
(§1) Biological Example 3: Evaluation of Kinase Selectivity
(§2) % inhibition rate with respect to various kinases (for example KDR etc.) of 1 μmol/L the test compound is measured.
(§3) A general assay condition (substrates, cofactor, ATP concentrations and reaction time etc.) suitable for respective kinase enzyme inhibition activity test is used.
(§4) 1 Prepare the test compounds into 1 mmol/L DMSO solution. 2 Transfer 20 nL of stock to 384 assay plate. Use DMSO as High and Low controls.
(§5) 1 Prepare the 1.3× Enzyme solution containing enzyme, substrate and cofactors. 2 Add 15 μL of 1.3× Enzyme solutions to each well and incubate the plate at room temperature for 30 min. 3 Initiate the reaction by adding 5 μL of 4×ATP solution. The final volume of each well should be 20 μL. 4 Incubate the plate at room temperature for reaction and add 75 μL of stopping buffer (containing 0.5 mol/L EDTA) to terminate the reaction.
(§6) Analyze the sample of each well using EZ reader (PerkinElmer).
(§7) Calculate the % Inhibition using read conversion ratio (CR) following the equation as below.
(§8) Use well treated with DMSO as High Control Use well without enzyme as Low Control

For another assay, the target named is ROCK (Homo sapiens, UniProt O75116). The experiment in a line: Evaluation of kinase selectivity: % inhibition rate of ROCK at 1 μmol/L. The settings on record: compound at 1 μmol/L; read-out: % inhibition rate of ROCK2. The assay is classed as biochemical. The protocol:
as §1, §2, §3, §4, §5, §6, §7, §8

Sequence of ROCK (O75116 whole entry): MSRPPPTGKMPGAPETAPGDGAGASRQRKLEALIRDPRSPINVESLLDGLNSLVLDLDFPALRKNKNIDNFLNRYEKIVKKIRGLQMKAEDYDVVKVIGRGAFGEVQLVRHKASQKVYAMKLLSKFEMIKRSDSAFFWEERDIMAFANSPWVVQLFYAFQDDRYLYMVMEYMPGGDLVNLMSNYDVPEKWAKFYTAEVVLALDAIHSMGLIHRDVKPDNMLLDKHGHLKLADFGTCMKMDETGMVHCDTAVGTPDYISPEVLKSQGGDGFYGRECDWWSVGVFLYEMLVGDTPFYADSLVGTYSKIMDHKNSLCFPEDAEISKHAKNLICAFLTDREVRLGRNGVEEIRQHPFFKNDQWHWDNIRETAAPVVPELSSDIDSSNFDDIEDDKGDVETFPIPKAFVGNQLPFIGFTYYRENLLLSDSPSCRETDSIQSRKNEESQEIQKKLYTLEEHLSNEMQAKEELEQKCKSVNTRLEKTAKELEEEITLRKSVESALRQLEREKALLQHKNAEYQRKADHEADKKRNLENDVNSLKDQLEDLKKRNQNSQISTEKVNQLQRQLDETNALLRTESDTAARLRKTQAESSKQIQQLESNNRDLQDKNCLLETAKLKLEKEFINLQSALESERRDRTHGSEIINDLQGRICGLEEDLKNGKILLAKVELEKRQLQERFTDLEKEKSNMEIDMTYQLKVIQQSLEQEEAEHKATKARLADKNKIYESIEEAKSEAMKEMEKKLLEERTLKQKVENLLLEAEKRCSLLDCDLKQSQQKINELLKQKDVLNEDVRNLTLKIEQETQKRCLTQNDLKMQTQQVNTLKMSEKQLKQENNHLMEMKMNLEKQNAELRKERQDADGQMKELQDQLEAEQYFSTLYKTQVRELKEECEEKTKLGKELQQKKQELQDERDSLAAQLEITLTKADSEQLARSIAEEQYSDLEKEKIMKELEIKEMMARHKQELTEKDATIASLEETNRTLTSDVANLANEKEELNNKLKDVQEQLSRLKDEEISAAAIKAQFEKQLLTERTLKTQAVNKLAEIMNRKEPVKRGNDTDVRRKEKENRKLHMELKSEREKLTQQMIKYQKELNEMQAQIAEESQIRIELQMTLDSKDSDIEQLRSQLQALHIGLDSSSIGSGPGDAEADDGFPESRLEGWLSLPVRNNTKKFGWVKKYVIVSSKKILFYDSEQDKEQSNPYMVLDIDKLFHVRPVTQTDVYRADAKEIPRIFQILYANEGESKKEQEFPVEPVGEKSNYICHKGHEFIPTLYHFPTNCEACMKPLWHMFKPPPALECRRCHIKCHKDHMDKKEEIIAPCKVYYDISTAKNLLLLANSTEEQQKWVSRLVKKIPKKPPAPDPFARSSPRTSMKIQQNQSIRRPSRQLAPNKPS
T1 sequence (Q08345 19-913): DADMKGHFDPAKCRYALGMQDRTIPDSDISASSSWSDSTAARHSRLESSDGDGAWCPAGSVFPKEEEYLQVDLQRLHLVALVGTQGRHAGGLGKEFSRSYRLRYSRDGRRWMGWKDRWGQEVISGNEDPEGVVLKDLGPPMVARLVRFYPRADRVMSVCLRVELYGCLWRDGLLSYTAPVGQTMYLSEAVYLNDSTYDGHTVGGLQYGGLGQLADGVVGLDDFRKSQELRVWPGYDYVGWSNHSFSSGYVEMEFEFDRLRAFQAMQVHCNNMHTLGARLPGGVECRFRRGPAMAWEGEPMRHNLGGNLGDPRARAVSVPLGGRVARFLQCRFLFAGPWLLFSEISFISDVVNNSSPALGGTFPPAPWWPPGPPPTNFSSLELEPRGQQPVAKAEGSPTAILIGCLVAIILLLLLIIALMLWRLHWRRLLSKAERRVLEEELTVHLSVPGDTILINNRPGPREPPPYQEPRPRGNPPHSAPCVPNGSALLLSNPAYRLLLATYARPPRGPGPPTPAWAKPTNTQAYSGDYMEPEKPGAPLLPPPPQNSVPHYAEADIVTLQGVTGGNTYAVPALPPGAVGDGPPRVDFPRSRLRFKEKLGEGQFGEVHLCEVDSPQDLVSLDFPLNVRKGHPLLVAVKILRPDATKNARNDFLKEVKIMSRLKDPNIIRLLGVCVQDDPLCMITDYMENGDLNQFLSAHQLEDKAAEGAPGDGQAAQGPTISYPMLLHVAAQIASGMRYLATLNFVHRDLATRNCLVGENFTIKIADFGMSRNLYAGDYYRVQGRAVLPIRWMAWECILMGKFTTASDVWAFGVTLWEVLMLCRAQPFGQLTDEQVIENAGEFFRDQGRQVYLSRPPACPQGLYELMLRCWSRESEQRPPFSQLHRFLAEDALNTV

By IC50 is commonly meant the concentration that gives 50% inhibition. As a reminder, the inhibition is the change of the read-out against control, counted positive when it falls. The molecule `Cc1cc(Oc2ccnc(N)n2)ccc1N1C(=O)CN(c2ccc(F)c(OC(F)(F)F)c2)C1=O` [Example 3(110), 3-{4-[(2-amino-4-pyrimidinyl)oxy]-2-methylphenyl}-1-[4-fluoro-3-(trifluoromethoxy)phenyl]-2,4-imidazolidinedione] had an IC50 at DDR1 of 1 nM. Besides, the inhibition at 1 µM was 6% against Flt-3 and -2% on ROCK.
